Laboratory results from patent US7235557B2, “Compounds and their uses” (MGI GP, Inc., priority 2000, dated 2007).

These compounds were tested against T1, purified recombinant human PARP (Homo sapiens, UniProt P09874) (assay: PARP enzyme assay (IC50)). Details: IC50 (μM), approximate IC50 values, [3H]NAD.
T1 construct: purchased Trevigan (Gaithersburg, Md.)
Type: biochemical
Protocol: The reaction is initiated by adding enzyme and incubating the mixture at 25° C. After 2 minutes of incubation, the reaction is terminated by adding 500 microliters of ice cold 30% (w/v) trichloroacetic acid. The precipitate formed is transferred onto a glass fiber filter Packard Unifilter-GF/C) and washed three times with 70% ethanol. After the filter is dried, the radioactivity is determined by scintillation counting.

T1 sequence (P09874 whole entry): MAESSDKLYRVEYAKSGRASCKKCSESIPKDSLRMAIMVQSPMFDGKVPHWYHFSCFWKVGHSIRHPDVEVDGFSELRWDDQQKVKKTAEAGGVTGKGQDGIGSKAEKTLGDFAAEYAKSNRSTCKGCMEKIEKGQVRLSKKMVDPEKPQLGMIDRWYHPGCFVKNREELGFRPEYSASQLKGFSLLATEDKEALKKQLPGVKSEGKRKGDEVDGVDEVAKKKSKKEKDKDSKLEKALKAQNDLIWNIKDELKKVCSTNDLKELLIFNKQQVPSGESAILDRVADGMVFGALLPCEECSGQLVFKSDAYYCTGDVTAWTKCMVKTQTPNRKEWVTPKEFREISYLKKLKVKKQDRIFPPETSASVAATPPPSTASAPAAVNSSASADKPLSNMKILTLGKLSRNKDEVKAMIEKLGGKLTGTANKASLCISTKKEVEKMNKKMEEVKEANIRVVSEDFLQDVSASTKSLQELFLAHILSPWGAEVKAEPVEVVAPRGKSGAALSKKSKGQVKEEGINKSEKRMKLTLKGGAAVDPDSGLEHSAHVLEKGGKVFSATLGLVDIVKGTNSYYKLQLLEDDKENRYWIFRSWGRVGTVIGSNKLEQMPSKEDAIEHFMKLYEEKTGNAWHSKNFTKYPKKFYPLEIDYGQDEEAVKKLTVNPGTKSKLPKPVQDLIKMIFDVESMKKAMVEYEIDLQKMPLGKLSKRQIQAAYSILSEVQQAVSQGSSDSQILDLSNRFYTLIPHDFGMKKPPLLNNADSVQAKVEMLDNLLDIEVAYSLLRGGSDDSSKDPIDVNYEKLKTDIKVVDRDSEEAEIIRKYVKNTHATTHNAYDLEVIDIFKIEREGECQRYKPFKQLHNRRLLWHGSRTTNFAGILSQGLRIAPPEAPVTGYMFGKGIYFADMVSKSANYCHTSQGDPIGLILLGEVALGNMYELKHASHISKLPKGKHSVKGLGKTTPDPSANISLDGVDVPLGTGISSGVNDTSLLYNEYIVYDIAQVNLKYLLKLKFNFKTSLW

| Structure (SMILES) | IC50 |
| --- | --- |
| Cc1nc2cccc3c2n1CCNC3=O | 0.141 µM |
| O=C1NCCn2c(Cc3ccccc3)nc3cccc1c32 | 0.108 µM |
| O=c1[nH]c2ccc(N3C[C@@H]4C[C@H]3CN4)nc2c2ccccc12 | 0.042 µM |

Same assay, conditions: approximate IC50 values, [3H]NAD, read-out: IC50

| Structure (SMILES) | IC50 |
| --- | --- |
| O=C1NN=Cc2c(Br)[nH]c3cccc1c23 | 0.026 µM |
| O=C1NN=Cc2c[nH]c3cccc1c23 | 0.018 µM |
| Cn1cc2c3c(cccc31)C(=O)NN=C2 | 0.146 µM |
| O=C1NN=Cc2c(Br)n(Cc3ccccc3)c3cccc1c23 | 20 µM |
| O=C1NN=C(c2ccccc2)c2c[nH]c3cccc1c23 | 0.021 µM |
| CC(C)(C)OC(=O)n1cc2c3c(cccc31)C(=O)NN=C2 | 1.2 µM |
| Cn1c(-c2ccccc2)c2c3c(cccc31)C(=O)NN=C2 | 0.047 µM |
| O=C1NN=Cc2c(-c3ccc(F)cc3)[nH]c3cccc1c23 | 0.073 µM |
| O=C1NN=Cc2c(-c3ccccc3)[nH]c3cccc1c23 | 0.01 µM |
| CC(C)(C)OC(=O)Cn1c(Br)c2c3c(cccc31)C(=O)NN=C2 | 24.1 µM |
| O=C1NN=C(CN2CCOCC2)c2c[nH]c3cccc1c23 | 0.037 µM |
| CN1CCN(CC2=NNC(=O)c3cccc4[nH]cc2c34)CC1 | 0.037 µM |
| CN(C)CCN(C)CC1=NNC(=O)c2cccc3[nH]cc1c23 | 0.035 µM |
| CCN(CC)CC1=NNC(=O)c2cccc3[nH]cc1c23 | 0.034 µM |
| O=C1NN=C(CN2CCC(N3CCCC3)CC2)c2c[nH]c3cccc1c23 | 0.098 µM |
| O=C1NN=C(CN2CCCC2)c2c[nH]c3cccc1c23 | 0.033 µM |
| O=C1NN=C(CN2CCCCC2)c2c[nH]c3cccc1c23 | 0.027 µM |
| CCN1CCN(CC2=NNC(=O)c3cccc4[nH]cc2c34)CC1 | 0.06 µM |
| O=C1NN=C(CN2CCN(Cc3ccccc3)CC2)c2c[nH]c3cccc1c23 | 0.141 µM |
| O=C1NCCc2c[nH]c3cccc1c23 | 0.366 µM |
| CC(C)(C)OC(=O)n1cc2c3c(cccc31)C(=O)NCC2 | 20 µM |
| O=C1NCCc2c(Br)[nH]c3cccc1c23 | 0.051 µM |
| O=C1NCCn2c(-c3cc(O)cc(O)c3)nc3cccc1c32 | 0.089 µM |
| O=C1NCCn2c(-c3cc(F)cc(F)c3)nc3cccc1c32 | 0.061 µM |

| Structure (SMILES) | IC50 |
| --- | --- |
| O=C1NCCn2c(-c3cccc(Cl)c3)nc3cccc1c32 | 0.08 µM |
| O=C1NCCn2cnc3cccc1c32 | 0.299 µM |
| O=C1NCCn2c(-c3ccc(O)cc3O)nc3cccc1c32 | 0.186 µM |
| CC(Cc1nc2cccc3c2n1CCNC3=O)c1ccccc1 (stereo not shown) | 0.13 µM |
| Cn1cc(-c2nc3cccc4c3n2CCNC4=O)c2ccccc21 | 0.268 µM |
| O=C(O)c1ccc(-c2nc3cccc4c3n2CCNC4=O)cc1 | 1.19 µM |
| O=C1NCCn2c(-c3cc(O)c(O)c(O)c3)nc3cccc1c32 | 0.324 µM |
| O=C1NCCn2c(-c3cccnc3)nc3cccc1c32 | 0.168 µM |
| O=C1NCCn2c(-c3ccccc3F)nc3cccc1c32 | 0.329 µM |
| O=C1NCCn2c(-c3ccc4ccccc4n3)nc3cccc1c32 | 0.299 µM |
| COc1ccc(CC(C)c2nc3cccc4c3n2CCNC4=O)cc1 (stereo not shown) | 0.128 µM |
| CCOC(=O)[C@@H]1C[C@H]1c1nc2cccc3c2n1CCNC3=O | 0.108 µM |
| CN(C)CCCOc1ccc(-c2nc3cccc4c3n2CCNC4=O)cc1 | 0.237 µM |
| COCc1nc2cccc3c2n1CCNC3=O | 0.227 µM |
| COc1ccc(/C=C/c2nc3cccc4c3n2CCNC4=O)cc1 | 0.142 µM |
| O=C1NCCn2c(-c3ccco3)nc3cccc1c32 | 0.108 µM |
| O=C1NCCn2c(C#Cc3ccccc3)nc3cccc1c32 | 0.044 µM |
| O=C1NCCn2c(-c3ccc([N+](=O)[O-])o3)nc3cccc1c32 | 0.021 µM |
| CC(=O)OCc1ccc(-c2nc3cccc4c3n2CCNC4=O)o1 | 0.068 µM |
| O=C1NCCn2c(/C=C/c3ccccc3)nc3cccc1c32 | 0.071 µM |
| O=C1NCCn2c(C=C(c3ccccc3)c3ccccc3)nc3cccc1c32 | 0.33 µM |
| O=C1NCCn2c(-c3cccc(Br)c3)nc3cccc1c32 | 0.106 µM |
| O=C1NCCn2c(-c3ccc(-c4ccc(Cl)cc4)o3)nc3cccc1c32 | 0.96 µM |
| O=C1NCCn2c(-c3ccc(-c4cccc(Cl)c4)o3)nc3cccc1c32 | 0.2 µM |

| Structure (SMILES) | IC50 |
| --- | --- |
| O=C1NCCn2c(-c3ccc(-c4ccccc4Cl)o3)nc3cccc1c32 | 0.145 µM |
| O=C1NCCn2c(-c3ccc(Br)s3)nc3cccc1c32 | 0.094 µM |
| O=C(O)CCc1nc2cccc3c2n1CCNC3=O | 1.44 µM |
| O=C(O)c1cccc(-c2nc3cccc4c3n2CCNC4=O)c1 | 0.155 µM |
| O=C1NCCn2c(Cn3ccnc3)nc3cccc1c32 | 0.738 µM |
| O=C1NCCn2c(CN3CCCc4ccccc43)nc3cccc1c32 | 0.818 µM |
| CN(Cc1nc2cccc3c2n1CCNC3=O)c1ccccc1 | 0.28 µM |
| CN1CCN(Cc2nc3cccc4c3n2CCNC4=O)CC1 | 1.57 µM |
| CN(C)CCN(C)Cc1nc2cccc3c2n1CCNC3=O | 0.288 µM |
| CN(Cc1nc2cccc3c2n1CCNC3=O)C1CCCCC1 | 0.46 µM |
| O=C1NCCn2c(CN3CCN(c4ccccc4)CC3)nc3cccc1c32 | 1.9 µM |
| CCCCN(CCCC)Cc1nc2cccc3c2n1CCNC3=O | 1.75 µM |
| CN(C)CCCN(C)Cc1nc2cccc3c2n1CCNC3=O | 0.473 µM |
| O=C1CCN(Cc2nc3cccc4c3n2CCNC4=O)CC1 | 0.329 µM |
| COC(=O)C1CN(Cc2nc3cccc4c3n2CCNC4=O)CCC1=O (stereo not shown) | 0.441 µM |
| O=C1NCCn2c(CN3CCCCC3CO)nc3cccc1c32 (stereo not shown) | 0.337 µM |
| O=C1NCCn2c(CN3CCCCCC3)nc3cccc1c32 | 1 µM |
| O=C1NCCn2c(CN3CCCCC3)nc3cccc1c32 | 0.801 µM |
| O=C1NCCn2c(CN3CCOCC3)nc3cccc1c32 | 0.523 µM |
| O=C1NCCn2c(CN3CCN(Cc4ccccc4)CC3)nc3cccc1c32 | 2.19 µM |
| O=C1NCCn2c(CN3CCCCCCC3)nc3cccc1c32 | 0.6 µM |
| CCCCCN(CCCCC)Cc1nc2cccc3c2n1CCNC3=O | 0.915 µM |
| CCCCCCN(CCCCCC)Cc1nc2cccc3c2n1CCNC3=O | 0.915 µM |
| CC(C)N(Cc1nc2cccc3c2n1CCNC3=O)C(C)C | 0.647 µM |

| Structure (SMILES) | IC50 |
| --- | --- |
| CCN(CC)Cc1nc2cccc3c2n1CCNC3=O | 0.535 µM |
| COc1ccc(N(C)Cc2nc3cccc4c3n2CCNC4=O)cc1 | 0.121 µM |
| O=C1NCCn2c(CN3CC4CC3CN4Cc3ccccc3)nc3cccc1c32 (stereo not shown) | 0.115 µM |
| CCCN(CCC)Cc1nc2cccc3c2n1CCNC3=O | 0.204 µM |
| CN(C)Cc1nc2cccc3c2n1CCNC3=O | 0.068 µM |
| O=C1NCCn2c(CN(Cc3ccccc3)Cc3ccccc3)nc3cccc1c32 | 0.218 µM |
| CC(C)(C)OC(=O)N1CCN(Cc2nc3cccc4c3n2CCNC4=O)CC1 | 0.266 µM |
| O=C1NCCn2c(CN3CCN(Cc4ccc5c(c4)OCO5)CC3)nc3cccc1c32 | 0.12 µM |
| O=C1NCCn2c(COCc3ccccc3)nc3cccc1c32 | 0.434 µM |
| CN(C)CCN(Cc1ccccc1)Cc1nc2cccc3c2n1CCNC3=O | 0.153 µM |
| O=C1NCCn2c(CN(CCc3ccccc3)Cc3ccccc3)nc3cccc1c32 | 10.5 µM |
| O=C1NCCn2c(CN3CCc4ccccc4C3)nc3cccc1c32 | 0.193 µM |
| COc1cc2c(cc1OC)CN(Cc1nc3cccc4c3n1CCNC4=O)CC2 | 0.713 µM |
| CC(C)(C)OC(=O)[C@@H]1CCCN1Cc1nc2cccc3c2n1CCNC3=O | 0.349 µM |
| O=C(NCCN1CCOCC1)c1cccc(-c2nc3cccc4c3n2CCNC4=O)c1 | 0.448 µM |
| O=C(NCCN1CCCC1)c1cccc(-c2nc3cccc4c3n2CCNC4=O)c1 | 0.321 µM |
| O=C(NCCN1CCCCC1)c1cccc(-c2nc3cccc4c3n2CCNC4=O)c1 | 0.376 µM |
| O=C1NCCn2c(-c3cccc(C(=O)N4CCN(Cc5ccc6c(c5)OCO6)CC4)c3)nc3cccc1c32 | 0.635 µM |
| CC(C)(C)OC(=O)N1CCN(C(=O)c2cccc(-c3nc4cccc5c4n3CCNC5=O)c2)CC1 | 0.583 µM |
| CN(C)CCCN(C)C(=O)c1cccc(-c2nc3cccc4c3n2CCNC4=O)c1 | 0.199 µM |
| CN(CCC1CCCN1C)C(=O)c1cccc(-c2nc3cccc4c3n2CCNC4=O)c1 (stereo not shown) | 1.24 µM |
| CCN(CC)CCNC(=O)c1cccc(-c2nc3cccc4c3n2CCNC4=O)c1 | 0.449 µM |
| CN(C)CCNC(=O)c1cccc(-c2nc3cccc4c3n2CCNC4=O)c1 | 0.246 µM |
| CCN(CC)CCCNC(=O)c1cccc(-c2nc3cccc4c3n2CCNC4=O)c1 | 0.179 µM |

| Structure (SMILES) | IC50 |
| --- | --- |
| O=C1NCCn2c(-c3cccc(C(=O)N4CC5CC4CN5Cc4ccccc4)c3)nc3cccc1c32 (stereo not shown) | 0.405 µM |
| COC(=O)C1CN(C(=O)c2cccc(-c3nc4cccc5c4n3CCNC5=O)c2)CCC1=O (stereo not shown) | 0.375 µM |
| COc1ccc2[nH]c(=O)c3ccccc3c2n1 | 0.216 µM |
| COc1ccc2c(c1)c(=O)[nH]c1cccnc12 | 4.15 µM |
| O=c1[nH]c2ccc(Cl)nc2c2ccccc12 | 2.1 µM |
| O=c1[nH]c2ccc(O)nc2c2ccccc12 | 0.114 µM |
| O=c1[nH]c2ccc(OCc3ccccc3)nc2c2ccccc12 | 20 µM |
| O=c1[nH]c2cc(Cl)cnc2c2ccccc12 | 0.292 µM |
| Nc1cnc2c(c1)[nH]c(=O)c1ccccc12 | 0.18 µM |
| O=c1[nH]c2ccc(NCCN3CCOCC3)nc2c2ccccc12 | 0.339 µM |
| O=c1[nH]c2ccc(N3CCNCC3)nc2c2ccccc12 | 0.045 µM |
| CC(C)N1CCN(c2ccc3[nH]c(=O)c4ccccc4c3n2)CC1 | 0.179 µM |
| O=c1[nH]c2ccc(N3CCN(CC4CCCO4)CC3)nc2c2ccccc12 (stereo not shown) | 0.179 µM |
| CN(C)CC(=O)Nc1ccc2[nH]c(=O)c3ccccc3c2n1 | 0.098 µM |
| O=C(CN1CCC(N2CCCC2)CC1)Nc1ccc2[nH]c(=O)c3ccccc3c2n1 | 0.142 µM |
| CN(C)CC(=O)Nc1cnc2c(c1)[nH]c(=O)c1ccccc12 | 0.165 µM |
| CCC(=O)Nc1cnc2c(c1)[nH]c(=O)c1ccccc12 | 0.111 µM |
| O=C(CN1CCC(N2CCCC2)CC1)Nc1cnc2c(c1)[nH]c(=O)c1ccccc12 | 0.134 µM |
| CC(C)N1CCN(CC(=O)Nc2cnc3c(c2)[nH]c(=O)c2ccccc23)CC1 | 0.086 µM |
| O=C1NN=Cn2cnc3cccc1c32 | 20 µM |
| O=C1NCCn2ccc3cccc1c32 | 0.7 µM |
| O=C1NCCN2CCc3cccc1c32 | 2.41 µM |
